Experimental data as given in US20230295152A1 (SENDA BIOSCIENCES, INC., priority 2019, published 2023).
≈ marks a conversion by molar mass, not a printed value. Where two headings read alike, the source gives them in different places.

Tests used:
[1] = Solubility Determination Assay in PBS pH 1.6 and pH 7.4; assay type: physicochemical; conditions: PBS buffer, aqueous buffer, kinetic from dmso stock
Method in brief: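 Compounds from 10 mM DMSO stock diluted into PBS pH 1.6 or pH 7.4 (15 μL into 485 μL), stirred 2 hours, then filtered. Filtrate quantified by LC-MS/MS against a standard of known concentration with internal standard; single determination.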

AHR = molecular target: T1, AHR (Homo sapiens, UniProt P35869); experiment: DRE-Luciferase Reporter Assay, HepG2 AhR-Lucia reporter cells; assay type: cell-based; conditions: with AHR activating ligand at EC50, read-out: HepG2-Luc IC50
T1 construct: other cell line with a DRE-luciferase reporter stably transfected; endogenous in cells; host or cells: HepG2 AhR-Lucia reporter cells
T1 sequence (P35869 11-848): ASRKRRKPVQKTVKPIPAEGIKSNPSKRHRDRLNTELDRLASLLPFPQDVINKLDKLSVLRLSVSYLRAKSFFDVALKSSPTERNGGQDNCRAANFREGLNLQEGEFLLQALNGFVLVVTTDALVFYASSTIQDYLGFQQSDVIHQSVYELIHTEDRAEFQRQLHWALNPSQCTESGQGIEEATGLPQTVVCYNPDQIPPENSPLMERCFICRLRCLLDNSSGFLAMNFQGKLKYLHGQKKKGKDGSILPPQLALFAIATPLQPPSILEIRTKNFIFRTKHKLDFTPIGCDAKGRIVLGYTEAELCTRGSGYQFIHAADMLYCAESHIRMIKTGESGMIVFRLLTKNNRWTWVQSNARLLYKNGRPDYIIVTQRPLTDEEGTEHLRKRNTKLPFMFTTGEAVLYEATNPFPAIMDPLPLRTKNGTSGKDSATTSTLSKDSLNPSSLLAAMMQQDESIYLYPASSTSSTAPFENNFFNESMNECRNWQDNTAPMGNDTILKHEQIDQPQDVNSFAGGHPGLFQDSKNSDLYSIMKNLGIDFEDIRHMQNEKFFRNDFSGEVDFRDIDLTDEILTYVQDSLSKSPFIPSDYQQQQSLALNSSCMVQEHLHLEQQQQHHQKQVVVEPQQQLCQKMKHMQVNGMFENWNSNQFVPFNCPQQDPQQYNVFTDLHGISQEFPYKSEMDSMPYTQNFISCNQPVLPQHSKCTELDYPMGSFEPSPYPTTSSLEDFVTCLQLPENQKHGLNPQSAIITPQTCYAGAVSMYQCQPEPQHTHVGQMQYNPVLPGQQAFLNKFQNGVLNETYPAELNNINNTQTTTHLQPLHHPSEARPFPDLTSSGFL
Method in brief: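 DRE-luciferase reporter cells (e.g. HepG2 AhR-Lucia, 20000 cells) treated with antagonist log dilutions from 100 uM, then an AHR agonist (e.g. TCDD, kynurenine, ITE, FICZ) at its EC50 added after 1 hr. Secreted luciferase measured after 24 or 48 h (QUANTI-Luc); IC50 = concentration halving luciferase activity.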

[2] = PBS pH 1.6, 25° C., read-out: Aq. Solubility at pH = 1.6
[3] = PBS pH 7.4, 25° C., read-out: Aq. Solubility at pH = 7.4

solubility at 2 h [1, 2] [µM] | solubility at 2 h [1, 3] [µM] | IC50 (AHR) [nM] | SMILES
≥ 1 | ≥ 1 | < 100 | C[C@@H](CO)n1cnc2c(-c3cccnc3)nc(-c3ccc(C4CC4)nc3)cc2c1=O [Compound 74]
≥ 1 | ≥ 1 | < 100 | O=c1c2cc(-c3ccc(C(F)(F)F)nc3)nc(-c3cccnc3)c2ncn1[C@@H]1COC[C@H]1O [Compound 79]
≥ 1 | ≥ 1 | < 100 | CC(C)(O)Cn1cnc2c(-c3cccnc3)nc(-c3ccc(C4CC4)nc3)cc2c1=O [Compound 81]
≥ 1 | ≥ 1 | < 100 | Cn1cc(-c2nc(-c3ccc(C4CC4)nc3)cc3c(=O)n(CC(C)(C)O)cnc23)cn1 [Compound 82]
≥ 1 | ≥ 1 | < 100 | C[C@@H](CO)n1cnc2c(-c3cnn(C)c3)nc(-c3ccc(C4CC4)nc3)cc2c1=O [Compound 83]
≥ 1 | ≥ 1 | < 100 | C[C@@H](CO)n1cnc2c(-c3cccnc3)nc(-c3cnc(C(F)(F)F)s3)cc2c1=O [Compound 85]
≥ 1 | ≥ 1 | < 100 | C[C@@H](CO)n1cnc2c(-c3cccnc3)nc(-c3cnc(C(F)(F)F)nc3)cc2c1=O [Compound 86]
≥ 1 | 0.1 to 1 (≈ 0.0458 to 0.458 µg/mL) | < 100 | Cn1cc(-c2nc(-c3ccc(C(F)(F)F)nc3)cc3c(=O)n([C@H]4COC[C@H]4O)cnc23)cn1 [Compound 88]
≥ 1 | ≥ 1 | < 100 | Cc1ncc(-c2cc3c(=O)n([C@@H](C)CO)cnc3c(-c3cccnc3)n2)s1 [Compound 89]
0.1 to 1 (≈ 0.0424 to 0.424 µg/mL) | < 0.1 | < 100 | Cn1cc(-c2nc(-c3ccc(Cl)cc3)cc3c(=O)n([C@H]4COC[C@H]4O)cnc23)cn1 [Compound 92]
≥ 1 | ≥ 1 | < 100 | C[C@@H](CO)n1cnc2c(-c3cnn(C)c3)nc(-c3cnc(C(F)(F)F)nc3)cc2c1=O [Compound 95]
≥ 1 | 0.1 to 1 (≈ 0.0445 to 0.445 µg/mL) | < 100 | Cn1cc(-c2nc(-c3cnc(C(F)(F)F)nc3)cc3c(=O)n(CC(C)(C)O)cnc23)cn1 [Compound 99]
0.1 to 1 (≈ 0.0447 to 0.447 µg/mL) | < 0.1 | < 100 | CC(C)(O)Cn1cnc2c(-c3cnsc3)nc(-c3ccc(C(F)(F)F)cn3)cc2c1=O [Compound 101, 3-(2-hydroxy-2-methylpropyl)-8-(isothiazol-4-yl)-6-(5-(trifluoromethyl)pyridin-2-yl)pyrido[3,4-d]pyrimidin-4(3H)-one]
0.1 to 1 (≈ 0.0433 to 0.433 µg/mL) | 0.1 to 1 (≈ 0.0433 to 0.433 µg/mL) | < 100 | C[C@@H](CO)n1cnc2c(-c3cnsc3)nc(-c3ccc(C(F)(F)F)cn3)cc2c1=O [Compound 102, (S)-3-(1-hydroxypropan-2-y1)-8-(isothiazol-4-yl)-6-(5-(trifluoromethyl)pyridin-2-yl)pyrido[3,4-d]pyrimidin-4(3H)-one]
0.1 to 1 (≈ 0.0444 to 0.444 µg/mL) | < 0.1 | < 100 | Cn1cc(-c2nc(-c3ccc(C(F)(F)F)cn3)cc3c(=O)n(CC(C)(C)O)cnc23)cn1 [Compound 103, 3-(2-hydroxy-2-methylpropyl)-8-(1-methyl-1H-pyrazol-4-yl)-6-(5-(trifluoromethyl)pyridin-2-yl)pyrido[3,4-d]pyrimidin-4(3H)-one]
≥ 1 | ≥ 1 | < 100 | O=c1c2cc(-c3ccc(C(F)(F)F)cn3)nc(-c3cccnc3)c2ncn1C[C@H](O)C(F)(F)F [Compound 104, (S)-8-(pyridin-3-yl)-3-(3,3,3-trifluoro-2-hydroxypropyl)-6-(5-(trifluoromethyl)pyridin-2-yl)pyrido[3,4-d]pyrimidin-4(3H)-one]
≥ 1 | ≥ 1 | < 100 | CC(C)(O)Cn1cnc2c(-c3cccnc3)nc(-c3ccc(C(F)(F)F)cn3)cc2c1=O [Compound 105]
0.1 to 1 (≈ 0.043 to 0.43 µg/mL) | 0.1 to 1 (≈ 0.043 to 0.43 µg/mL) | < 100 | C[C@H](O)Cn1cnc2c(-c3cnn(C)c3)nc(-c3ccc(C(F)(F)F)nc3)cc2c1=O [Compound 109, (S)-3-(2-hydroxypropyl)-8-(1-methyl-1H-pyrazol-4-yl)-6-(6-(trifluoromethyl)pyridin-3-yl)pyrido[3,4-d]pyrimidin-4(3H)-one]
< 0.1 | < 0.1 | < 100 | Cn1cc(-c2nc(-c3ccc(C(F)(F)F)nc3)cc3c(=O)n(C[C@@H](O)C(F)(F)F)cnc23)cn1 [Compound 110, (R)-8-(1-methyl-1H-pyrazol-4-yl)-3-(3,3,3-trifluoro-2-hydroxypropyl)-6-(6-(trifluoromethyl)pyridin-3-yl)pyrido[3,4-d]pyrimidin-4(3H)-one]
0.1 to 1 (≈ 0.0484 to 0.484 µg/mL) | < 0.1 | < 100 | Cn1cc(-c2nc(-c3ccc(C(F)(F)F)nc3)cc3c(=O)n(C[C@H](O)C(F)(F)F)cnc23)cn1 [Compound 111, (S)-8-(1-methyl-1H-pyrazol-4-yl)-3-(3,3,3-trifluoro-2-hydroxypropyl)-6-(6-(trifluoromethyl)pyridin-3-y1)pyrido[3,4-d]pyrimidin-4(3H)-one]
≥ 1 | ≥ 1 | < 100 | C[C@@H](O)Cn1cnc2c(-c3cccnc3)nc(-c3ccc(C(F)(F)F)nc3)cc2c1=O [Compound 112, (R)-3-(2-hydroxypropyl)-8-(pyridin-3-yl)-6-(6-(trifluoromethyl)pyridin-3-yl)pyrido[3,4-d]pyrimidin-4(3H)-one]
0.1 to 1 (≈ 0.0458 to 0.458 µg/mL) | 0.1 to 1 (≈ 0.0458 to 0.458 µg/mL) | < 100 | Cn1cc(-c2nc(-c3ccc(C(F)(F)F)nc3)cc3c(=O)n([C@H]4COC[C@@H]4O)cnc23)cn1 [Compound 114, 3-((3S,4R)-4-hydroxytetrahydrofuran-3-yl)-8-(1-methyl-1H-pyrazol-4-yl)-6-(6-(trifluoromethyl)pyridin-3-yl)pyrido[3,4-d]pyrimidin-4(3H)-one]
0.1 to 1 (≈ 0.0458 to 0.458 µg/mL) | 0.1 to 1 (≈ 0.0458 to 0.458 µg/mL) | < 100 | Cn1cc(-c2nc(-c3ccc(C(F)(F)F)nc3)cc3c(=O)n([C@@H]4COC[C@H]4O)cnc23)cn1 [Compound 115, 3-((3R,4S)-4-hydroxytetrahydrofuran-3-y1)-8-(1-methyl-1H-pyrazol-4-y1)-6-(6-(trifluoromethyl)pyridin-3-yl)pyrido[3,4-d]pyrimidin-4(3H)-one]
0.1 to 1 (≈ 0.0424 to 0.424 µg/mL) | 0.1 to 1 (≈ 0.0424 to 0.424 µg/mL) | < 100 | Cn1cc(-c2nc(-c3ccc(Cl)cc3)cc3c(=O)n([C@H]4COC[C@@H]4O)cnc23)cn1 [Compound 116]
≥ 1 | ≥ 1 | < 100 | O=c1c2cc(-c3ccc(C(F)(F)F)nc3)nc(-c3cccnc3)c2ncn1[C@H]1COC[C@@H]1O [Compound 117]
≥ 1 | ≥ 1 | < 100 | O=c1c2cc(-c3ccc(C4CC4)nc3)nc(-c3cccnc3)c2ncn1C[C@H](O)C(F)(F)F [Compound 120, (S)-6-(6-cyclopropylpyridin-3-yl)-8-(pyridin-3-yl)-3-(3,3,3-trifluoro-2-hydroxypropyl)pyrido[3,4-d]pyrimidin-4(3H)-one]
